Assay results taken from patent US5945508A, “Substance P treatment for immunostimulation” (priority 1997, dated 1999).
Read-outs that look alike come from different tables or passages of the source.

Key:
Spleen T Cell = assay: Mitogenesis of spleen T cells, LP-BM5 mouse AIDS model; format: in vivo, C57BL6 mice
Procedure: (§1) C57BL6 mice, average weight of 25-30 grams, were infected with the LP-BM5 murine leukemia retrovirus to simulate the human AIDS virus. […] The mice were divided into two groups; LP-BM5 virus only and LP-BM5 virus+substance P aerosol therapy at 1 μM concentration. The mice were killed at 4 and 8 weeks postinoculation.
The proliferation of splenic B and T cells induced by mitogens was determined by incorporation of radioactive thymidine. Splenocytes in 0.1 ml of cell culture medium (1×10 ^7 cells/ml) were cultured in 96-well flat-bottom cultured plates with ConA and lipopolysaccharide, 5 micrograms/ml). […] After 4 hours for radioactive thymidine uptake, the cells were harvested by a cell sample harvester. Radioactivity was determined by a liquid scintillation counter (Tri-Carb, 2200CA). The T and B cell mitogenesis values were recorded as counts per min in 1×10^7 cells/ml.

interferon-gamma = assay: Spleen cytokine ELISA, LP-BM5 mouse AIDS model; format: in vivo, C57BL6 mice; conditions: SP aerosol 1 μM
Procedure: as §1
(§2) Spleen cytokine assays for interleukin-6 and interferon-gamma were conducted by standard mouse ELISA assays. The antibodies for IL-6 and interferon-gamma were purchased from Genzyme, Inc. and Collaborative Research, respectively. Briefly, flat bottom polyvinylchloride 96-well enzyme immunoassay plates were coated with […] monoclonal antibody in 0.05 ml bicarbonate buffer (pH 9.6) to each cytokine. After washing in phosphate-buffered saline containing 0.05% (v/v) Tween-20, plates were incubated in blocking reagent (1% bovine serum albumin in buffer). For the standard curves for each cytokine assay, serial dilutions of recombinant cytokine were added to a set of wells from anti-cytokine coated plates. After two hours at room temperature and three subsequent washings, biotinylated-anti-cytokine will be added to respective wells diluted 1:500 in blocking reagent. All plates were then incubated for an additional two hours at room temperature, washed three times, then […] of 1:5000 avidin-peroxidase was added. After an additional 3 washes, […] of the substrate mixture was added to each well (ABTS plus hydrogen peroxide solution). After an incubation at room temperature for 10-15 minutes, stopping reagent ([…] of a 12 g NaOH in 50 ml water solution) was added. Readings were taken at 405 nm with 490 nm reference using a microELISA spectrophotometric plate reader. Values of interluekin-6 and interferon-gamma were expressed as nanograms/ml.

interleukin-6 = assay: Spleen cytokine ELISA, LP-BM5 mouse AIDS model; format: in vivo, C57BL6 mice; conditions: SP aerosol 1 μM
Procedure: as §1, §2

[1] = system: lymphocyte subpopulations; assay: Flow cytometric analyses (FACS); format: in vivo, C57B16 mice
Procedure: At 24 hours after the last exposure, the animals were sacrificed and the effects of exposure on the immune system examined. Immune organs (spleen, thymus, blood, lymph nodes and bone marrow) were recovered and analyzed for effects on organ weight, total cell numbers, immune cell populations (by differentials), and lymphocyte subpopulations (by flow cytometry). Assays were also performed to examine the effects of exposure on immune function. […] Similar effects on immune cell subpopulations were also observed in lymph nodes. In the thymus it appeared that the immature CD4^+ CD8^+ cells were differentially lost due to exposure. […] However, these effects are prevented or ameliorated by treatment of the animals with Substance P.
One- and two-color FACS analyses are performed using a Becton-Dickinson FACStar Plus flow cytometer. Cells are stained with the indicated monoclonal antibodies according to standard procedures (Harris et al., id). Cells alone and cells reacted with conjugated isotype control, irrelevant mAbs are used as controls. Data is presented as the percentage of cells staining positive for each individual mAb.

[2] = system: murine melanoma B16 cancer cells; conditions: 1×10^5 B16 cells, mean (SEM)
Procedure: The mice were infected with 1×10^5 murine melanoma B16 cancer cells by tail vein injection. […] The second group of mice was treated with the same SP dose starting at one week post-injection for seven days. Survival was assessed to determine the effect of SP aerosol therapy in prolonging life when mice are challenged with a massive cancer challenge.

[3] = 8 weeks post-infection with LP-BM5
[4] = JP-8 1000 mg/m^3 + SP, nSP (1 nM), CP or RP

Substance P [SP]
Spleen T Cell Mitogenesis (Spleen T Cell; 4 weeks after LP-BM5 infection, SP aerosol 1 μM 3 days/week, 25 Hours in Culture): 2963 (56) counts per min | Spleen T Cell Mitogenesis (Spleen T Cell; 4 weeks after LP-BM5 infection, SP aerosol 1 μM 3 days/week, 48 Hours in Culture): 2769 (23) counts per min | Spleen T Cell Mitogenesis (Spleen T Cell; 4 weeks after LP-BM5 infection, SP aerosol 1 μM 3 days/week, 72 Hours in Culture): 4362 (69) counts per min | Spleen T Cell Mitogenesis (Spleen T Cell; 8 weeks post-infection with LP-BM5, SP aerosol 1 μM, 72 hours in culture): 3127 (77) counts per min | Spleen Cytokine Production Interferon-Gamma (interferon-gamma; 4 weeks after LP-BM5 infection): 1.5188 (0.21) nanogram/ml | Spleen Cytokine Production Interferon-Gamma (interferon-gamma; [3]): 1.072 (0.09) nanogram/ml | Spleen Cytokine Production Interleukin-6 (interleukin-6; 4 weeks after LP-BM5 infection): 0.1334 (0.02) nanogram/ml | Spleen Cytokine Production Interleukin-6 (interleukin-6; [3]): 0.1480 (0.02) nanogram/ml | BM CD3 positive cells ([1]; JP-8 250 mg/m^3 + SP): 13% | BM CD4 positive cells ([1]; JP-8 250 mg/m^3 + SP): 10% | BM CD8 positive cells ([1]; JP-8 250 mg/m^3 + SP): 3% | BM CD45 positive cells ([1]; JP-8 250 mg/m^3 + SP): 48% | BM MAC1 positive cells ([1]; JP-8 250 mg/m^3 + SP): 10% | LN CD3 positive cells ([1]; JP-8 250 mg/m^3 + SP): 85% | LN CD4 positive cells ([1]; JP-8 250 mg/m^3 + SP): 48% | LN CD8 positive cells ([1]; JP-8 250 mg/m^3 + SP): 12% | LN CD45 positive cells ([1]; JP-8 250 mg/m^3 + SP): 13% | LN MAC1 positive cells ([1]; JP-8 250 mg/m^3 + SP): 1% | PBL CD3 positive cells ([1]; JP-8 250 mg/m^3 + SP): 59% | PBL CD4 positive cells ([1]; JP-8 250 mg/m^3 + SP): 15% | PBL CD8 positive cells ([1]; JP-8 250 mg/m^3 + SP): 6% | PBL CD45 positive cells ([1]; JP-8 250 mg/m^3 + SP): 16% | PBL MAC1 positive cells ([1]; JP-8 250 mg/m^3 + SP): 1% | Spleen CD3 positive cells ([1]; JP-8 250 mg/m^3 + SP): 62% | Spleen CD4 positive cells ([1]; JP-8 250 mg/m^3 + SP): 27% | Spleen CD8 positive cells ([1]; JP-8 250 mg/m^3 + SP): 3% | Spleen CD45 positive cells ([1]; JP-8 250 mg/m^3 + SP): 21% | Spleen MAC1 positive cells ([1]; JP-8 250 mg/m^3 + SP): 1% | Thymus CD3 positive cells ([1]; JP-8 250 mg/m^3 + SP): 24% | Thymus DN cells ([1]; JP-8 250 mg/m^3 + SP): 5% | Thymus DP cells ([1]; JP-8 250 mg/m^3 + SP): 68% | Thymus SP4 cells ([1]; JP-8 250 mg/m^3 + SP): 22% | Thymus SP8 cells ([1]; JP-8 250 mg/m^3 + SP): 5% | BM CD3 positive cells [1, 4]: 14% | BM CD4 positive cells [1, 4]: 9% | BM CD8 positive cells [1, 4]: 2% | BM CD45 positive cells [1, 4]: 31% | BM MAC1 positive cells [1, 4]: 26% | LN CD3 positive cells [1, 4]: 86% | LN CD4 positive cells [1, 4]: 29% | LN CD8 positive cells [1, 4]: 11% | LN CD45 positive cells [1, 4]: 22% | LN MAC1 positive cells [1, 4]: 0% | PBL CD3 positive cells [1, 4]: 61% | PBL CD4 positive cells [1, 4]: 23% | PBL CD8 positive cells [1, 4]: 10% | PBL CD45 positive cells [1, 4]: 22% | PBL MAC1 positive cells [1, 4]: 3% | Spleen CD3 positive cells [1, 4]: 34% | Spleen CD4 positive cells [1, 4]: 18% | Spleen CD8 positive cells [1, 4]: 10% | Spleen CD45 positive cells [1, 4]: 20% | Spleen MAC1 positive cells [1, 4]: 5% | Thymus CD3 positive cells [1, 4]: 20% | Thymus DN cells [1, 4]: 10% | Thymus DP cells [1, 4]: 65% | Thymus SP4 cells [1, 4]: 16% | Thymus SP8 cells [1, 4]: 6% | BM CD3 positive cells ([1]; JP-8 2500 mg/m^3 + SP): 6% | BM CD4 positive cells ([1]; JP-8 2500 mg/m^3 + SP): 3% | BM CD8 positive cells ([1]; JP-8 2500 mg/m^3 + SP): 6% | BM CD45 positive cells ([1]; JP-8 2500 mg/m^3 + SP): 24% | BM MAC1 positive cells ([1]; JP-8 2500 mg/m^3 + SP): 34% | Spleen CD3 positive cells ([1]; JP-8 2500 mg/m^3 + SP): 38% | Spleen CD4 positive cells ([1]; JP-8 2500 mg/m^3 + SP): 26% | Spleen CD8 positive cells ([1]; JP-8 2500 mg/m^3 + SP): 14% | Spleen CD45 positive cells ([1]; JP-8 2500 mg/m^3 + SP): 31% | Spleen MAC1 positive cells ([1]; JP-8 2500 mg/m^3 + SP): 3% | Thymus CD3 positive cells ([1]; JP-8 2500 mg/m^3 + SP): 16% | Thymus DN cells ([1]; JP-8 2500 mg/m^3 + SP): 19% | Thymus DP cells ([1]; JP-8 2500 mg/m^3 + SP): 64% | Thymus SP4 cells ([1]; JP-8 2500 mg/m^3 + SP): 15% | Thymus SP8 cells ([1]; JP-8 2500 mg/m^3 + SP): 5% | BM CD3 positive cells ([1]; dose 0 (no JP-8) + SP or CP): 12% | BM CD4 positive cells ([1]; dose 0 (no JP-8) + SP or CP): 11% | BM CD8 positive cells ([1]; dose 0 (no JP-8) + SP or CP): 1% | BM CD45 positive cells ([1]; dose 0 (no JP-8) + SP or CP): 48% | Spleen CD3 positive cells ([1]; dose 0 (no JP-8) + SP or CP): 42% | Spleen CD4 positive cells ([1]; dose 0 (no JP-8) + SP or CP): 26% | Spleen CD8 positive cells ([1]; dose 0 (no JP-8) + SP or CP): 11% | Spleen CD45 positive cells ([1]; dose 0 (no JP-8) + SP or CP): 23% | Spleen MAC1 positive cells ([1]; dose 0 (no JP-8) + SP or CP): 1% | Thymus CD3 positive cells ([1]; dose 0 (no JP-8) + SP or CP): 10% | Thymus DN cells ([1]; dose 0 (no JP-8) + SP or CP): 7% | Thymus DP cells ([1]; dose 0 (no JP-8) + SP or CP): 84% | Thymus SP4 cells ([1]; dose 0 (no JP-8) + SP or CP): 6% | Thymus SP8 cells ([1]; dose 0 (no JP-8) + SP or CP): 2% | Days alive after B16 cells ([2]; 1 μM SP aerosol 15 min/day 7 days starting immediately): 31.5 (3.8) Days | Days alive after B16 cells ([2]; SP aerosol 7 days starting one week after B16 cells): 26.0 (2.0) Days
